The source of these data is patent US8017612B2, “Piperazine compound and use thereof as a HCV polymerase inhibitor” (priority 2006, dated 2011).

In assay [1] the target is T1, HCV polymerase (NS5B) type 1b (Hepatitis C virus genotype 1b, UniProt P26663).
T1 construct: a region encoding NS5B (J Virol 1991 March, 65(3), 1105-13, 544 amino acids after deletion of 47 amino acids on the C-terminal); 6xHis (C); made in house; host or cells: Escherichia coli
Kind of assay: Assay of enzyme (HCV polymerase) inhibitory activity, type 1b enzyme. Type of assay: biochemical, HCV BK strain (type 1b). The conditions noted are these: HCV polymerase inhibitory activity IC50, 1b, type 1b enzyme. In outline: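 IC50 derived from [3H]UTP incorporation into TCA-insoluble RNA, compared with and without test compound. Reaction (25 °C, 60 min, Tris pH 7.5, 5 mM MgCl2): E. coli-expressed 1b NS5B Δ47 with His tag at 0.5 μg/ml, 5 μg/ml run-off substrate RNA, ATP/GTP/CTP 50 μM, UTP 2 μM.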

Assay [2] has as its target T2, HCV polymerase (NS5B) type 1a (Hepatitis C virus genotype 1a, UniProt P26664).
T2 construct: made in house; host or cells: Escherichia coli (by the 'similar method' of the 1b enzyme)
The experiment in a line: Assay of enzyme (HCV polymerase) inhibitory activity, type 1a enzyme. It is filed as biochemical, HCV type 1a (cloned from the blood of patients). Particulars: HCV polymerase inhibitory activity IC50, 1a, type 1a enzyme. An outline of the steps:
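Reactions ran 60 min at 25° C in 20 mM Tris-HCl pH 7.5, 5 mM MgCl2, 50 mM NaCl, holding genotype 1a NS5B (1.5 μg/ml, Δ47 C-terminus, 6His), substrate RNA 5 μg/ml, UTP 2 μM with tritiated UTP and other NTPs 50 μM. IC50 derived from incorporated radiolabel in filter-trapped RNA relative to uninhibited reaction.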

The term IC50 denotes the point on the concentration scale where inhibition reaches its midpoint. Read a low IC50 as inhibition by little substance. For `CCC(F)(F)c1ccc(CNC(=O)[C@H]2CN(c3nc4nc(Cl)ncc4s3)CCN2S(=O)(=O)c2ccc(OC(F)(F)F)cc2)cc1` [Example 895, (R)-4-(5-chloro-thiazolo[4,5-d]pyrimidin-2-yl)-1-(4-trifluoromethoxy-benzenesulfonyl)-piperazine-2-carboxylic acid 4-(1,1-difluoro-propyl)-benzylamide], the half-inhibitory concentration (IC50) in assay [1] and in assay [2] was under 100 nM in each case.

On to `O=C(NCc1ccc(OC(F)(F)F)cc1)[C@H]1CN(c2nc3cnnc(Cl)c3s2)CCN1S(=O)(=O)c1ccc(C(F)(F)F)cc1` [Example 896, (R)-4-(7-chloro-thiazolo[4,5-d]pyridazin-2-yl)-1-(4-trifluoromethyl-benzenesulfonyl)-piperazine-2-carboxylic acid 4-trifluoromethoxy-benzylamide], for which the half-maximal inhibitory concentration (IC50) in assay [1] and in assay [2] was under 100 nM throughout.

As for `O=C(NCc1ccc(OC(F)(F)F)cc1)[C@H]1CN(c2nc3cnncc3s2)CCN1S(=O)(=O)c1ccc(C(F)(F)F)cc1` [Example 897, (R)-4-thiazolo[4,5-d]pyridazin-2-yl-1-(4-trifluoromethyl-benzenesulfonyl)-piperazine-2-carboxylic acid 4-trifluoromethoxy-benzylamide], the 50% inhibitory concentration (IC50) in assay [1] and in assay [2] was under 100 nM in each case.

Turning to `O=C(NCc1ccc(OC(F)(F)C(F)F)cc1)[C@H]1CN(c2nc3cn[nH]c(=O)c3s2)CCN1S(=O)(=O)c1ccc(OC(F)(F)F)cc1` [Example 898, (R)-4-(7-oxo-6,7-dihydro-thiazolo[4,5-d]pyridazin-2-yl)-1-(4-trifluoromethoxy-benzenesulfonyl)-piperazine-2-carboxylic acid 4-(1,1,2,2-tetrafluoro-ethoxy)-benzylamide], the IC50 in assay [1] and in assay [2] was under 100 nM each time.

In the case of `O=C(NCC1CC(c2ccccc2)C1)[C@H]1CN(c2nc3cn[nH]c(=O)c3s2)CCN1S(=O)(=O)c1ccc(OC(F)(F)F)cc1` (stereo partly drawn) [Example 899, (R)-4-(7-oxo-6,7-dihydro-thiazolo[4,5-d]pyridazin-2-yl)-1-(4-trifluoromethoxy-benzenesulfonyl)-piperazine-2-carboxylic acid (3-phenyl-cyclobutylmethyl)-amide], the 50% inhibitory concentration (IC50) in assay [1] is 100 to 1000 nM; in assay [2] it was over 1000 nM.

With `CCC(F)(F)c1ccc(CNC(=O)[C@H]2CN(c3nc4cn[nH]c(=O)c4s3)CCN2S(=O)(=O)c2ccc(C(F)(F)F)cc2)cc1` [Example 900, (R)-4-(7-oxo-6,7-dihydro-thiazolo[4,5-d]pyridazin-2-yl)-1-(4-trifluoromethyl-benzenesulfonyl)-piperazine-2-carboxylic acid 4-(1,1-difluoro-propyl)-benzylamide], the IC50 in assay [1] and in assay [2] was under 100 nM throughout.

As to `O=C(NCc1ccc2ccccc2c1)[C@H]1CN(c2nc3cn[nH]c(=O)c3s2)CCN1S(=O)(=O)c1ccc(OC(F)(F)F)cc1` [Example 901, (R)-4-(7-oxo-6,7-dihydro-thiazolo[4,5-d]pyridazin-2-yl)-1-(4-trifluoromethoxy-benzenesulfonyl)-piperazine-2-carboxylic acid (naphthalen-2-ylmethyl)-amide], the concentration for half-maximal inhibition (IC50) in assay [1] and in assay [2] was under 100 nM throughout.

In the case of `CCC(F)(F)c1ccc(CNC(=O)[C@H]2CN(c3nc4nc(Cl)ncc4s3)CCN2S(=O)(=O)c2ccc(C(F)(F)F)cc2)cc1` [Example 902, (R)-4-(5-chloro-thiazolo[4,5-d]pyrimidin-2-yl)-1-(4-trifluoromethyl-benzenesulfonyl)-piperazine-2-carboxylic acid 4-(1,1-difluoro-propyl)-benzylamide], the concentration for half-maximal inhibition (IC50) in assay [1] and in assay [2] was under 100 nM in each case.

With `CCC(F)(F)c1ccc(CNC(=O)[C@H]2CN(c3nc4ncncc4s3)CCN2S(=O)(=O)c2ccc(C(F)(F)F)cc2)cc1` [Example 903, (R)-4-thiazolo[4,5-d]pyrimidin-2-yl-1-(4-trifluoromethyl-benzenesulfonyl)-piperazine-2-carboxylic acid 4-(1,1-difluoro-propyl)-benzylamide], the concentration for half-maximal inhibition (IC50) in assay [1] and in assay [2] was under 100 nM each time.

As for `Cn1ncc2nc(N3CCN(S(=O)(=O)c4ccc(OC(F)(F)F)cc4)[C@@H](C(=O)NCc4ccc(OC(F)(F)F)cc4)C3)sc2c1=O` [Example 904, (R)-4-(6-methyl-7-oxo-6,7-dihydro-thiazolo[4,5-d]pyridazin-2-yl)-1-(4-trifluoromethoxy-benzenesulfonyl)-piperazine-2-carboxylic acid 4-trifluoromethoxy-benzylamide], the IC50 in assay [1] is under 100 nM; in assay [2], 100 to 1000 nM.

For `COc1ncc2sc(N3CCN(S(=O)(=O)c4ccc(C(F)(F)F)cc4)[C@@H](C(=O)NCc4ccc(OC(F)(F)F)cc4)C3)nc2n1` [Example 905, (R)-4-(5-methoxy-thiazolo[4,5-d]pyrimidin-2-yl)-1-(4-trifluoromethyl-benzenesulfonyl)-piperazine-2-carboxylic acid 4-trifluoromethoxy-benzylamide], the half-inhibitory concentration (IC50) in assay [1] and in assay [2] was under 100 nM throughout.

Turning to `Cc1nnc(Cl)c2sc(N3CCN(S(=O)(=O)c4ccc(OC(F)(F)F)cc4)[C@@H](C(=O)NCc4ccc(OC(F)(F)F)cc4)C3)nc12` [Example 906, (R)-4-(7-chloro-4-methyl-thiazolo[4,5-d]pyridazin-2-yl)-1-(4-trifluoromethoxy-benzenesulfonyl)-piperazine-2-carboxylic acid 4-trifluoromethoxy-benzylamide], the IC50 in assay [1] and in assay [2] was under 100 nM throughout.

Take `Cc1nc(Cl)c2sc(N3CCN(S(=O)(=O)c4ccc(OC(F)(F)F)cc4)[C@@H](C(=O)NCc4ccc(OC(F)(F)F)cc4)C3)nc2n1` [Example 907, (R)-4-(7-chloro-5-methyl-thiazolo[4,5-d]pyrimidin-2-yl)-1-(4-trifluoromethoxy-benzenesulfonyl)-piperazine-2-carboxylic acid 4-trifluoromethoxy-benzylamide]: the IC50 in assay [1] and in assay [2] was under 100 nM throughout.

As for `Cc1ncc2sc(N3CCN(S(=O)(=O)c4ccc(OC(F)(F)F)cc4)[C@@H](C(=O)NCc4ccc(OC(F)(F)F)cc4)C3)nc2n1` [Example 908, (R)-4-(5-methyl-thiazolo[4,5-d]pyrimidin-2-yl)-1-(4-trifluoromethoxy-benzenesulfonyl)-piperazine-2-carboxylic acid 4-trifluoromethoxy-benzylamide], the IC50 in assay [1] and in assay [2] was under 100 nM in each case.

Turning to `CCCc1nc(C)c(CNC(=O)[C@H]2CN(c3nc4cn[nH]c(=O)c4s3)CCN2S(=O)(=O)c2ccc(OC(F)(F)F)cc2)s1` [Example 909, (R)-4-(7-oxo-6,7-dihydro-thiazolo[4,5-d]pyridazin-2-yl)-1-(4-trifluoromethoxy-benzenesulfonyl)-piperazine-2-carboxylic acid (4-methyl-2-propyl-thiazol-5-ylmethyl)-amide], the 50% inhibitory concentration (IC50) in assay [1] was under 100 nM; in assay [2], 100 to 1000 nM.

As for `Cc1nc2nc(N3CCN(S(=O)(=O)c4ccc(OC(F)(F)F)cc4)[C@@H](C(=O)NCc4ccc(OC(F)(F)F)cc4)C3)sc2c(=O)[nH]1` [Example 910, (R)-4-(5-methyl-7-oxo-6,7-dihydro-thiazolo[4,5-d]pyrimidin-2-yl)-1-(4-trifluoromethoxy-benzenesulfonyl)-piperazine-2-carboxylic acid 4-trifluoromethoxy-benzylamide], the IC50 in assay [1] and in assay [2] was under 100 nM in each case.

For `CCC(F)(F)c1ccc(CNC(=O)[C@H]2CN(c3nc4nc(C)[nH]c(=O)c4s3)CCN2S(=O)(=O)c2ccc(OC(F)(F)F)cc2)cc1` [Example 911, (R)-4-(5-methyl-7-oxo-6,7-dihydro-thiazolo[4,5-d]pyrimidin-2-yl)-1-(4-trifluoromethoxy-benzenesulfonyl)-piperazine-2-carboxylic acid 4-(1,1-difluoro-propyl)-benzylamide], the half-inhibitory concentration (IC50) in assay [1] and in assay [2] was under 100 nM each time.

Take `O=C(NCc1ccc(OC(F)(F)F)cc1)[C@H]1CN(c2nc3nc(Br)ncc3s2)CCN1S(=O)(=O)c1ccc(OC(F)(F)F)cc1` [Example 912, (R)-4-(5-bromo-thiazolo[4,5-d]pyrimidin-2-yl)-1-(4-trifluoromethoxy-benzenesulfonyl)-piperazine-2-carboxylic acid 4-trifluoromethoxy-benzylamide]: the IC50 in assay [1] and in assay [2] was under 100 nM in each case.

For the molecule `CCCc1ccc(CNC(=O)[C@H]2CN(c3nc4nc(Cl)ncc4s3)CCN2S(=O)(=O)c2ccc(OC(F)(F)F)cc2)cc1` [Example 913, (R)-4-(5-chloro-thiazolo[4,5-d]pyrimidin-2-yl)-1-(4-trifluoromethoxy-benzenesulfonyl)-piperazine-2-carboxylic acid 4-propyl-benzylamide], the 50% inhibitory concentration (IC50) in assay [1] and in assay [2] was under 100 nM in each case.

Consider `CCCc1ccc(CNC(=O)[C@H]2CN(c3nc4ncncc4s3)CCN2S(=O)(=O)c2ccc(OC(F)(F)F)cc2)cc1` [Example 914, (R)-4-thiazolo[4,5-d]pyrimidin-2-yl-1-(4-trifluoromethoxy-benzenesulfonyl)-piperazine-2-carboxylic acid 4-propyl-benzylamide], for which the IC50 in assay [1] and in assay [2] was under 100 nM in each case.
